In the NIST ThermoML archive (doi:10.1021/je3002078):
± gives the expanded uncertainty stated by the source.

Conditions: Liquid; for mass density: 101.33 kPa, Vibrating tube method; for vapor or sublimation pressure: Ebulliometric method (Recirculating still)

SMILES | mass density (303.15 K) | mass density (308.15 K) | vapor or sublimation pressure (399.89 K) | vapor or sublimation pressure (442.28 K) | vapor or sublimation pressure (489.79 K) | vapor or sublimation pressure (474.01 K)
OCCCl [1-chloro-2-hydroxyethane] | 1192.48 ± 0.53 kg/m3 | 1186.44 ± 0.53 kg/m3 | 95.3 ± 7.1 kPa |  |  | 
NCCO [2-aminoethan-1-ol] | 1008.12 ± 0.51 kg/m3 | 1005.08 ± 0.51 kg/m3 |  | 95.3 ± 7.1 kPa |  | 
OCCc1ccccc1 [2-phenylethanol] | 1012.65 ± 0.51 kg/m3 | 1008.68 ± 0.51 kg/m3 |  |  | 95.3 ± 7.1 kPa | 
CN1CCCC1=O [N-methylpyrrolidone] | 1023.45 ± 0.51 kg/m3 | 1013.34 ± 0.51 kg/m3 |  |  |  | 95.3 ± 7.1 kPa
